Here are results for 3 compounds from PMC10418701, “Pharmacological Screening of Kv7.1 and Kv7.1/KCNE1 Activators as Potential Antiarrhythmic Drugs in the Zebrafish Heart” (International Journal of Molecular Sciences, 2023).

Assay [1] deals with T1, zebrafish Kv7.1 (KCNQ1) (Danio rerio, UniProt B0R0K2).
T1 construct: gene kcnq1.1
T1 sequence (B0R0K2 1-655): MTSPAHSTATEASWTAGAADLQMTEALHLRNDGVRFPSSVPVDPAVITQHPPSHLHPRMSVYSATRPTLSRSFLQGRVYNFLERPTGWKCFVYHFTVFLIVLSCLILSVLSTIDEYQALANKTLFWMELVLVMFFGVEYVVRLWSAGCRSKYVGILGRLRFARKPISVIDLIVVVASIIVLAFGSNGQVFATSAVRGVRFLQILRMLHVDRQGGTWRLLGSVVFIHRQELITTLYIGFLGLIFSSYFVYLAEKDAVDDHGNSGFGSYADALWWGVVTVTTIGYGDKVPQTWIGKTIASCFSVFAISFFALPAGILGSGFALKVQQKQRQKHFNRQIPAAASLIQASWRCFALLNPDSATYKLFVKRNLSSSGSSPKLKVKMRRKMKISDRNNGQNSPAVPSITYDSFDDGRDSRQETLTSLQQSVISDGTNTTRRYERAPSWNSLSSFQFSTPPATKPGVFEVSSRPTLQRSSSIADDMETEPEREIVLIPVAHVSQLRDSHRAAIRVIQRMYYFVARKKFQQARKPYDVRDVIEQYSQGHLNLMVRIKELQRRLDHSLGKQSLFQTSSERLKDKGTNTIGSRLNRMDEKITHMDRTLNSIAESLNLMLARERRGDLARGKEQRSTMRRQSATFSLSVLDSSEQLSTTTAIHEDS
The assay can be described thus: two-electrode voltage clamp, zebrafish Kv7.[…] expressed in Xenopus laevis oocytes. It counts as cell-based.

The target of assay [2] is T1, zebrafish Kv7.1 (KCNQ1). The assay can be described thus: cell-based. It is filed as cell-based.

The compound `CCS(=O)(=O)N(C)[C@H]1c2cc(C#N)ccc2OC(C)(C)[C@@H]1O` (racemic) [chromanol 293B] displayed an inhibition at 10 µM on zebrafish Kv7.1 (KCNQ1) [1] of 76%.
Take `CC/C=C\C/C=C\C/C=C\C/C=C\C/C=C\C/C=C\CCC(=O)NCC(=O)O` [DHA-Gly]: the “two-electrode voltage clamp, zebrafish Kv7.1 expressed in Xenopus laevis oocytes” value on zebrafish Kv7.1 (KCNQ1) [2] was 12.2 mV left shift of V0.5 at 20 µM.
Turning to `COc1ccc(-c2csc(NC(=O)[C@H]3CCCCN3S(=O)(=O)c3ccc(C)cc3)n2)cc1` [ML-277], at zebrafish Kv7.1 (KCNQ1) [2] (read-out: two-electrode voltage clamp, zebrafish Kv7.1 expressed in Xenopus laevis oocytes), the fold induction at 1 µM is > 8.
